Values quoted from earlier work, collected in the CATMoS acute toxicity set (Mansouri et al. 2021).
Values joined by “and” are separate entries in the source; they are usually repeats but may differ in a detail not shown here. Equal values may be shown once.

Assay: rat acute oral toxicity
Conditions: in vivo
From the text: […]The data set underlying the modeling effort for this project was initially compiled by NICEATM and U.S. EPA’s CCTE. Briefly, LD50 data were collected from rat acute oral systemic toxicity tests, including limit tests, ranges/confidence intervals, and discrete LD50 values. The full data set included 21,200 LD50 entries for 15,688 substances. […] Data were reviewed to ensure that LD50 values with obvious errors in the extracted data such as unit conversion errors (e.g., comma and decimal separator misplacements) were either fixed or removed. After this review, 16,209 LD50 values remained. Many of the chemicals represented had multiple LD50 entries, requiring that a single representative value per Chemical Abstracts Service Registry Number (CASRN) identifier be defined to facilitate modeling efforts. Based on ATWG feedback and to define the representative LD50 as a protective value while accounting for the distribution across multiple LD50s, the median of the lowest quartile was computed using only discrete LD50 values (omitting limit test data and range and confidence interval data). A detailed summary of the data compilation is available online on the NICEATM webpage dedicated to the collaborative modeling project (NTP 2020).
[…][…] For categorical designations, limit test and range/confidence interval LD50 data were integrated wherever possible. As such, the number of chemicals with end point values/calls varies across the modeling end points (Table 3) based on whether chemicals had representative LD50 values and/or other data. If a chemical had both, the representative value was used to determine categorical calls rather than limit test data. Some data were useable only for certain end points and categories depending on the thresholds. For example, ranges that spanned multiple hazard categories were considered only for the binary (very toxic/nontoxic) end points and omitted from rendering a determination for hazard category assignment.
[…]The final data set comprising 11,992 chemicals was split into training and evaluation sets […], respectively. This process was performed semirandomly by ordering chemicals based on the five end points (categorical and continuous LD50 values) and partitioning every fourth record into the evaluation set accordingly. This approach was taken to ensure an equivalent distribution of the LD50 values and the different hazard categories between the training and the evaluation sets without supervised sampling of the chemicals based on structures (Figure 1A). The sources of the chemical structures were also kept equivalent between the two sets, with chemical structures obtained from DSSTox, being the highest quality, representing over 75% of each set (Figure 1B).

Point of comparison: `O=C1NC(=O)C2C3C(C(O)(c4ccccc4)c4ccccn4)=CC(C3=C(c3ccccc3)c3ccccn3)C12` (stereo unspecified), LD50 6 mg/kg. Against it:
- Cc1cccc(C)c1NC(=O)C1(N(C)C)CCN(C2CCCCC2O)CC1 (stereo unspecified) — within 1.5-fold, 4.83 mg/kg
- O=c1[nH]c2[nH]cnc(=O)c2[nH]1 — 290-fold higher, 1760 mg/kg
- CCOC(C)=O — 940-fold higher, 5620 mg/kg
- CCN(CC)C(=S)Sc1nc2ccccc2s1 — 1000-fold higher, 6000 mg/kg
- COc1ccc2c(c1)CCCC2=O — 50-fold higher, 300 mg/kg
- COC(N)=O — 420-fold higher, 2500 mg/kg
- CCOP(=S)(OCC)SCC(N)=O — 1.7-fold higher, 10 mg/kg
- C1CNCCNC1 — 470-fold higher, 2830 mg/kg
- CC1(C)Cc2cccc(OC(=O)NCSc3ccc(C(C)(C)C)cc3)c2O1 — 21-fold higher, 125 mg/kg
- CCOC(=O)NS(=O)(=O)c1ccc(Cl)cc1 — 63-fold higher, 380 mg/kg
- COC(=O)c1c(Cl)c(Cl)c(C(=O)SC)c(Cl)c1Cl — 550-fold higher, 3300 mg/kg
- CC(C)=Cc1ccc(C(C)C(=O)O)cc1 (stereo unspecified) — 220-fold higher, 1300 mg/kg
- C=CC1(C)OC(=O)N(c2cc(Cl)cc(Cl)c2)C1=O (stereo unspecified) — 1700-fold higher, 10000 mg/kg
- CCC(C)c1ccc(Cl)c(OC(=O)NC)c1 (stereo unspecified) — 8.3-fold higher, 50 mg/kg
- Clc1cnn(CCCCN2CCN(c3ncccn3)CC2)c1 — 62-fold higher, 374 mg/kg
- CC1=CCC2CC1(S)C2(C)C (stereo unspecified) — 500-fold higher, 3000 mg/kg
- CCNc1nc(=O)nc(NC(C)(C)C(=O)O)[nH]1 — 130-fold higher, 789 mg/kg
- NC(=O)CBr — 17-fold higher, 100 mg/kg
- CC(C)OC(=O)c1ccccc1 — 620-fold higher, 3730 mg/kg
- CN(C)CCCC(CCc1ccc2c(c1)OCO2)CCc1ccc2c(c1)OCO2 — 200-fold higher, 1230 mg/kg
- [N-]=[N+]=CC(=O)OC[C@H](N)C(=O)O — 28-fold higher, 170 mg/kg
- CCCCCCCCCOC(=O)C1=CNC=C(C(=O)NC2CCCC2)C1c1ccccc1[N+](=O)[O-] (stereo unspecified) — 1.7-fold higher, 10 mg/kg
- CCCCON=O — 14-fold higher, 83 mg/kg
- CCCOCCOC(C)=O — 1600-fold higher, 9460 mg/kg
- Cc1noc(NS(=O)(=O)c2ccc(N)cc2)c1C — 1700-fold higher, 10000 mg/kg
- C1=CC2C3CCC(C3)C2C1 (stereo unspecified) — 110-fold higher, 670 mg/kg
- C=CC(=O)OCCOCCOCCOCCOC(=O)C=C — 140-fold higher, 813 mg/kg
- CCOc1ccc(F)cc1C(CN(C)C)C(C)CC (stereo unspecified) — 54-fold higher, 324 mg/kg
- O=C(O)C1C(C(=O)O)C2(Cl)C(Cl)=C(Cl)C1(Cl)C2(Cl)Cl (stereo unspecified) — 300-fold higher, 1770 mg/kg
- COC(=O)C=Cc1ccccc1 — 440-fold higher, 2610 mg/kg
- O=[N+]([O-])c1ccc(/C=N/NC(=S)N2CCCC2)o1 — 120-fold higher, 750 mg/kg
- CCCCOC(=O)c1ccccc1C(=O)OCc1ccccc1 — 390-fold higher, 2330 mg/kg
- CC(C)=NNC(=O)CSc1cc(Oc2ccc(C)cc2)ncn1 — 150-fold higher, 900 mg/kg
- Clc1c(Cl)c(Cl)c2c(c1Cl)Oc1ccccc1O2 — 7.5-fold lower, 0.8 mg/kg
- C=C(C)C(=O)Nc1ccc(Cl)c(Cl)c1 — 300-fold higher, 1800 mg/kg
- Oc1ccc(Cl)cc1Cc1ccccc1 — 280-fold higher, 1700 mg/kg
- CCCSP(=S)(OC)SCCC — 2.7-fold higher, 16 mg/kg
- CCCOC(=O)Nc1ccco1 — 270-fold higher, 1600 mg/kg
- Cc1cc(Cl)ccc1OCC(=O)Nc1ccccc1 — 750-fold higher, 4500 mg/kg
- O=C1CCC2CCCCC2O1 (stereo unspecified) — 650-fold higher, 3900 mg/kg
- COC(CN1CCN(CC(O)C(OC)c2ccccc2)CC1)c1ccccc1 (stereo unspecified) — 72-fold higher, 435 mg/kg
- CC(C)NCC(O)COc1ccc(CCOCC2CC2)cc1 (stereo unspecified) — 170-fold higher, 998 mg/kg
- N#CSc1cccc(C(=O)O)c1 — 12-fold higher, 73 mg/kg
- COS(=O)(=O)c1ccc(C)cc1 — 57-fold higher, 341 mg/kg
- Nc1n[nH]c2ccc(C(F)(F)F)cc12 — 15-fold higher, 90 mg/kg
- CN1CCN(C2=Cc3ccccc3Sc3ccc(Cl)cc32)CC1 — 19-fold higher, 115 mg/kg
- O=S(=O)(NC(O)=NC1CCCCC1)c1ccc(Cl)cc1 — 250-fold higher, 1520 mg/kg
- CCCCOC(=O)CC(CC(=O)OCCCC)(OC(C)=O)C(=O)OCCCC — 5200-fold higher, 31400 mg/kg
- CC(N)CC(C)(C)N (stereo unspecified) — 72-fold higher, 431 mg/kg
- CC1=Nc2ccc(Cl)cc2S(=O)(=O)N1 — 160-fold higher, 980 mg/kg
- CCCCn1cnnc1 — 8.3-fold higher, 50 mg/kg
- Cc1ccc(NCCCc2ccccc2)cc1 — 270-fold higher, 1600 mg/kg
- O=CC1CCC=CO1 (stereo unspecified) — 820-fold higher, 4920 mg/kg
- O=S1OCC2C(CO1)C1(Cl)C(Cl)=C(Cl)C2(Cl)C1(Cl)Cl (stereo unspecified) — 40-fold higher, 240 mg/kg
- CN(C)C1CC(c2ccccc2)c2ccccc21 (stereo unspecified) — 29-fold higher, 176 mg/kg
- CCC(=O)C(CC(C)N(C)C)(c1ccccc1)c1ccccc1 (stereo unspecified) — 14-fold higher, 86 mg/kg
- CCOC(C1=NCC(C)(C)CN1)c1cccc(Cl)c1 (stereo unspecified) — 16-fold higher, 95 mg/kg
- CCN[C@H]1C[C@H](C)S(=O)(=O)c2sc(S(N)(=O)=O)cc21 — 320-fold higher, 1930 mg/kg
- C[C@@H]1CCCCN1N=O — 100-fold higher, 600 mg/kg

For `Oc1ccccc1-c1ccccc1`, the LD50 is listed as 656 mg/kg and 1050 mg/kg.
